Data on two compounds can be found in publication PMC6832239, “The Effects of a Novel Series of KTTKS Analogues on Cytotoxicity and Proteolytic Activity” (Molecules, 2019).

Data set [1] can be described thus: Viability of fibroblast cells, MTT assay. In kind it is cell-based, Human. The note with it: human, primary dermal fibroblast cells, 24 h, MTT, ± 2, read-out: Viability of fibroblast cells. An outline of the steps:
(§1)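 Primary dermal fibroblasts near 80% confluence were exposed for 24 h to peptides at 1, 10 or 100 μM, with matched DMSO controls. Then 4 h MTT (5 mg/mL), lysis in DMSO/Sorensen's buffer, absorbance at 570 nm; mean ± SD of three experiments in duplicate.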

Data set [2] deals with primary dermal fibroblasts cells. The data set is described as follows: Viability of fibroblast cells, MTT assay. In kind it is cell-based, Human. The note with it: MTT, 1-100 μM, 24 h. An outline of the steps:
as §1

The test system of a further data set is collagen synthesis. On the set-up: method as in PMID 19268583. The note with it: cited from earlier work.
Details of data set [3]: method as in PMID 25143811. The note with it: stratum corneum, epidermis, dermis; cited from earlier work.
Another data set relates to face wrinkles. Also noted: method as in PMID 19570099. Particulars: oil-in-water cream twice daily for 8 and 12 weeks; cited from earlier work.
A further data set deals with human dermal fibroblasts. On the set-up: method as in PMID 23320752. The note with it: cited from earlier work.
In a further data set the target is T1, plasmin (Homo sapiens, UniProt P00747).
T1 construct: purchased Chromogenix (Milano, Italy)
T1 sequence (P00747 581-810 limits assumed): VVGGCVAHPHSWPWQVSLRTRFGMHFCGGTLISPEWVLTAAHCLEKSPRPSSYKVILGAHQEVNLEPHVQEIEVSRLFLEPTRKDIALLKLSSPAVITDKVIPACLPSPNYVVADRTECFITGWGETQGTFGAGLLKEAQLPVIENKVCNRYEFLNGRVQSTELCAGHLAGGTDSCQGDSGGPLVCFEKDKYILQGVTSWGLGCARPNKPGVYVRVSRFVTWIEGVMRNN
T1 sequence (P00747 97-580 partner limits assumed): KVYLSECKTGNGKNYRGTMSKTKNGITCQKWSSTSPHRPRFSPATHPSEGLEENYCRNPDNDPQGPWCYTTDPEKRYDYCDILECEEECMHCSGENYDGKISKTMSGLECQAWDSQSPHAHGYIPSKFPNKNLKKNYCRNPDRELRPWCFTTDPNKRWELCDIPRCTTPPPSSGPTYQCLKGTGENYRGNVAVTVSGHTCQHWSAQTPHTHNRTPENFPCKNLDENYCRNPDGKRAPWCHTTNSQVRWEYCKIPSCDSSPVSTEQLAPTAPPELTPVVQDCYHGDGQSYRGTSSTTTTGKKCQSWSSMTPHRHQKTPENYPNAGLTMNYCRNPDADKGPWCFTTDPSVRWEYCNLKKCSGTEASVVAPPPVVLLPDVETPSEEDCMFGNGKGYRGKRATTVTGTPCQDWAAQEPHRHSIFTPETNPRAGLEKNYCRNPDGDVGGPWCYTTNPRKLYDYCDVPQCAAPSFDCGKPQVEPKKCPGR
On the set-up: method as in PMID 27434836. The note with it: competitive and reversible inhibitor; cited from earlier work.

The target of a further data set is T2, urokinase (Homo sapiens, UniProt P00749).
T2 construct: purchased Sigma (Schnelldorf, Germany)
Also noted: method as in PMID 27434836. The note with it: competitive and reversible inhibitor; cited from earlier work.

Another data set relates to tryptase. Also noted: method as in PMID 27434836. The note with it: selectivity; cited from earlier work.
A further data set deals with kallikrein 5. Also noted: method as in PMID 27434836. The note with it: selectivity; cited from earlier work.
For a further data set, the system named is kallikrein 7. On the set-up: method as in PMID 27434836. The note with it: selectivity; cited from earlier work.
A further data set concerns neutrophil elastase. On the set-up: method as in PMID 27434836. Particulars: selectivity; cited from earlier work.

Residues, ends and D or L forms follow the SMILES beside them.

For the compound `CCCCCCCCCCCCCCCC(=O)N[C@@H](CCCCN)C(=O)N[C@H](C(=O)N[C@H](C(=O)N[C@@H](CCCCN)C(=O)N[C@@H](CO)C(=O)O)[C@@H](C)O)[C@@H](C)O` [Peptide 4, Pal-Lys-Thr-Thr-Lys-Ser-OH, reference compound] (HELM PEPTIDE1{[CCCCCCCCCCCCCCCC(=O)[*:2]].K.T.T.K.S}$$$$V2.0), the viability at 24 h, 1 µmol/L in [1] (1 µmol/L) was 97%. The viability at 24 h, 10 µmol/L in data set [1] (10 µmol/L) is 91%. Further, the viability at 24 h, 100 µmol/L in data set [1] (100 µmol/L) is 85%. For the same compound, in data set [2], the “cytotoxicity / cell growth effect on fibroblasts” value is reported as “did not exhibit fibroblast growth”. Also, in the data set on collagen synthesis, the “increase of collagen synthesis” value is “over 150%”. Also, the “retention in skin layers” value in data set [3] is recorded as “retained in different skin layers”. The “length of wrinkles, age spots, skin texture versus placebo cream” value with face wrinkles is listed as “markedly improved”. Further, the collagen production entry with human dermal fibroblasts is given as “stimulates collagen production in a concentration-dependent manner”.
For `N=C(N)c1ccc(CNC(=O)C(CCc2ccccc2)NC(=O)[C@@H](CO)NS(=O)(=O)Cc2ccccc2)cc1` (stereo partly drawn) [BSFAB, benzylsulfonyl-D-Ser-homoPhe-(4-amidinobenzylamide)], the Ki is 29 nM on plasmin and 25 nM at urokinase. Further, in the data set with tryptase, the inhibition of tryptase result was “did not inhibit”. In addition, the “inhibition of kallikrein 5” value in the data set with kallikrein 5 is “did not inhibit”. Further, in the data set with kallikrein 7, the “inhibition of kallikrein 7” value is recorded as “did not inhibit”. Further, the “inhibition of neutrophil elastase” value in the data set with neutrophil elastase was “did not inhibit”.
